The values below come from PMC6148296 (Scientific Reports, 2018).

The Emax is the greatest response seen or fitted, relative to the assay's reference. Broadly, the Ki is the equilibrium dissociation constant of an inhibitor or competing ligand from its target. A word on the ED50: it is the midpoint of the dose-response relation.

Series [1] has as its target T1, human κ-opioid receptor (Homo sapiens, UniProt P41145).
T1 construct: expressed in transfected cells; membranes prepared
Briefly: [35S]GTPγS binding assay, KOR. The format is biochemical.

The target of series [2] is T1, human κ-opioid receptor. Put plainly: Receptor binding assay, [3H]U69593 competition. The settings on record: CHO cell membranes, 1.5 nM [3H]U69593; read-out: κ binding affinity Ki.
For series [3], the system named is mice. Put plainly: Abdominal constriction test. In kind it is in vivo. To be noted: for effect of Dezocine on morphine-induced antinociception: 0.05 mg/kg Dezocine; for ED50: Mus musculus; for effect of antagonist pretreatment on Dezocine-produced antinociception: antagonist 20 mg/kg i.p., 24 h before 0.25 mg/kg Dezocine.
Series [4] deals with T2, rat μ-opioid receptor (Rattus norvegicus, UniProt P33535).
T2 construct: expressed in transfected cells; membranes prepared
Put plainly: [35S]GTPγS binding assay, MOR. In kind it is biochemical. To be noted: for functional profile at μ opioid receptor: G protein activation; for Kb: read-out: Antagonist activity MOR Ke. Background: Binding of GTPγS marks nucleotide exchange on a G protein.

For series [5], the system named is mice. Briefly: Hot plate test. The format is in vivo. How it is done: (§1) Kunming strain male and female mice weighing 20 to 24 g were obtained from the Laboratory Animal Center, Chinese Academy of Sciences (Shanghai, China). Mice were housed in groups in a room maintained in a 12/12 h light/dark cycle in a temperature controlled environment with free access to food and water. All research protocols were approved by the Animal Care and Use Committee of Shanghai Institute of Materia Medica, Chinese Academy of Sciences. All experimental procedures were in strict accordance with the National Institutes of Health Guide for the Care and Use of Laboratory Animals.
Hot plate test was performed according to the method described previously[31],[34],[35]. Briefly, mice were placed on a 55 °C heated surface, the latency to licking or jumping was recorded. The cut-off time of 60 s was used to minimize tissue damage. Before formal study, the nociceptive response of each mouse was measured three times, and the mean of the 2nd and 3rd responses was used as pre-drug latency. The mouse not responding within 20 s was excluded. The percentage antinociception was calculated as 100× [(test latency-predrug latency)/(cut-off time -predrug latency)].
A general note: Hot-plate and tail-flick tests time the reaction to a heat stimulus.

For series [6], the target named is T2, rat μ-opioid receptor. Briefly: Receptor binding assay, [3H]DAMGO competition.
The target in series [7] is T3, rat δ-opioid receptor (Rattus norvegicus, UniProt P33533).
T3 construct: expressed in transfected cells; membranes prepared
Put plainly: Receptor binding assay, [3H]DPDPE competition. The settings on record: read-out: δ binding affinity Ki.

Series [8] has as its system mice. Put plainly: Formalin test. In kind it is in vivo. To be noted: for ED50: Mus musculus, 0.25 h. As for the experimental part:
as §1
The formalin test was performed according to our previous work[35]. In brief, the amount of time that mice spent licking or flinching the injected hind paw was recorded after injected with 20 μl 1.0% formalin at the plantar surface of the right hind paw. The mice were observed fro 60 min. The first 10 min was recorded as the phase I, and the rest of time was recorded as phase II. Percentage of analgesia was calculated as 100× (time of control – time of drug)/time of control.

Series [9] relates to mice. Briefly: Rotorod test (sedation). In kind it is in vivo. The settings on record: for sedative effect, rotarod test: 15 min after injection. (In the rotarod test animals must keep their balance on a rotating rod.)
The target of series [10] is T3, rat δ-opioid receptor. Briefly: [35S]GTPγS binding assay, DOR. The format is biochemical. The settings on record: read-out: Agonist activity DOR Emax (agonist efficacy at 10 μM).
For series [11], the system named is mice. More on the design: method as in PMID 18353307, PMID 25816912. The settings on record: 95% confidence limits in parentheses; cited from earlier work.
Series [12] concerns mice. Further details: method as in PMID 18353307, PMID 25816912. To be noted: 95% confidence limits in parentheses; cited from earlier work. The source holds these as a separate data set.
The test system of series [13] is mice. Further details: method as in PMID 18353307, PMID 25816912. To be noted: 95% confidence limits in parentheses; cited from earlier work. This is another data set of the same source.
The mark [14] stands for this setting: mice, 15 min after drug administration, 95% confidence limits in parentheses.

Several values for one entry are separate records, joined by “and”; a condition that tells them apart may be missing. Identical values can stand only once. Entries after “also recorded” stand apart in the source; their conditions may differ. Like-named read-outs stand apart in the source and are kept apart here. Marks after values point to notes of the source that are not given here.

In the case of `C[C@@]12CCCCC[C@@H](Cc3ccc(O)cc31)[C@@H]2N` [Dezocine], the “functional profile at κ opioid receptor” value at human κ-opioid receptor [1] (G protein activation) is on record as “κ partial agonist”. Further, the “Agonist activity KOR Emax (agonist efficacy at 10 μM)” value at human κ-opioid receptor [1] (at 10 μM, % of the maximal stimulation obtained with U50,488 H) is on record as 33.6 ± 2.4^d %. Besides, the Emax at 10 µM on human κ-opioid receptor [1] (read-out: Agonist activity KOR Emax (agonist efficacy at 10 μM), at 10 μM, % of the maximal stimulation obtained with U50,488 H) was 33 to 45%; on rat μ-opioid receptor [4] (read-out: Agonist activity MOR Emax (agonist efficacy at 10 μM)), 45.8 ± 1.1%; at rat δ-opioid receptor [10], 26.1 ± 1%. The Kb is 324.1 nM and 324 nM on human κ-opioid receptor [1] (rightward shift of U50,488 H concentration-response curve, single dose method, read-out: Antagonist activity KOR Ke); 10.4 ± 4.9 nM on rat μ-opioid receptor [4]; 10.4 nM at rat μ-opioid receptor [4] (rightward shift of DAMGO concentration-response curve, single dose method). The Ki on human κ-opioid receptor [2] amounted to 22 ± 1.52 nM; on rat μ-opioid receptor [6] (read-out: µ binding affinity Ki) it was 1.46 ± 0.1 nM; on rat δ-opioid receptor [7], 399 ± 43.3 nM. Besides, the “effect of Dezocine on morphine-induced antinociception” value in the series on mice [3] (0.3 mg/kg morphine) was “did not affect”; in the series on mice [3] (0.4 mg/kg morphine, p < 0.05), “significantly decreased; also recorded: significantly inhibited”. For the same compound, the “effect of Dezocine co-administration on morphine antinociception” value in the series on mice [3] (0.125 mg/kg Dezocine and 0.3 mg/kg morphine) was “produced higher antinociception than morphine used alone”. In addition, in the series on mice [3] (Dezocine pretreatment, U50,488 H 1.2 mg/kg i.p., without β-FNA), the “effect of Dezocine on U50,488H-induced antinociception” value was “did not inhibit; also recorded: did not affect”. The 50% effective dose (ED50) in the series on mice [3] (0.25 h, mice, 15 min after drug administration, 95% confidence limits in parentheses, read-out: Antinociception ED50 Abdominal constriction test) was 0.2 mg/kg; with mice [3] (summary over abdominal constriction and formalin tests, read-out: ED50 values of Dezocine-induced antinociception), 0.2 to 0.4 mg/kg; in the series on mice [8] (mice, 15 min after drug administration, 95% confidence limits in parentheses, read-out: Antinociception ED50 Formalin test Phase I), 0.4 mg/kg; with mice [8] (mice, 15 min after drug administration, 95% confidence limits in parentheses, read-out: Antinociception ED50 Formalin test Phase II) it was 0.4 mg/kg. In addition, the “potency relative to morphine, abdominal constriction test” value in the series with mice [3] (ratio of ED50 values) is given as 4 fold. For the same compound, the “effect of Dezocine on U50,488H-induced antinociception in the presence of β-FNA” value with mice [3] (β-FNA pretreatment, U50,488 H 1.2 mg/kg i.p., p < 0.05) is “significantly decreased”. On rat μ-opioid receptor [4], the “functional profile at μ opioid receptor” value is “μ partial agonist”. Besides, the “maximal antinociceptive effect, hot-plate test” value in the series with mice [5] (at 7.5 mg/kg, bell-shaped dose-response curve) is given as “around 60%”. Moreover, in the series with mice [5] (hot-plate test, time course), the “duration of consistent high (close to peak) antinociceptive response” value is “up to 1 h”. Besides, the “onset of antinociceptive action” value in the series on mice [5] (hot-plate test, time course) stood at 5 min. In the series on mice [5] (i.v., s.c., or p.o.), the “maximal antinociception, hot-plate test, whatever the route of administration” value was “around 55%”. Also, on rat μ-opioid receptor [6] (from Ki values), the “selectivity for μ over δ opioid receptors” value is 273 fold. Also, on rat μ-opioid receptor [6] (from Ki values), the “selectivity for μ over κ opioid receptors” value is 15 fold. Also, the “Antinociception ED50 Formalin test Phase I” value with mice [8] (setting [14]) is reported as 0.4 (0.2–1.0) mg/kg. The “Antinociception ED50 Formalin test Phase II” value with mice [8] (setting [14]) is recorded as 0.4 (0.2–0.9) mg/kg. The “potency relative to morphine, formalin test phase I” value in the series with mice [8] (ratio of ED50 values) was “approximately 13 fold”. Also, the “potency relative to morphine, formalin test phase II” value in the series with mice [8] (ratio of ED50 values) came to 9 fold. The “sedative effect, rotarod test” value in the series on mice [9] (2.5 mg/kg, trend, p = 0.0881) is given as “did not reach significant difference”; in the series with mice [9] (5 mg/kg, p < 0.05 vs saline) it was “produced significant sedation”; in the series on mice [9] (7.5 and 25 mg/kg) it was “the sedative effect diminished”. Moreover, the “dose that produced sedative side effects (ceiling effect)” value in the series with mice [9] (rotarod test) worked out at 5 mg/kg.
On to `Oc1ccc2c3c1O[C@H]1c4[nH]c5c(c4C[C@@]4(O)[C@@H](C2)N(CC2CC2)CC[C@]314)C[C@@]1(O)[C@H]2Cc3ccc(O)c4c3[C@@]1(CCN2CC1CC1)[C@H]5O4` [nor-BNI, nor-binaltorphimine], for which the “effect of antagonist pretreatment on Dezocine-produced antinociception” value in the series with mice [3] (p < 0.05) is recorded as “significantly decreased”.
As to `COC(=O)/C=C/C(=O)N[C@@H]1CC[C@@]2(O)[C@H]3Cc4ccc(O)c5c4[C@@]2(CCN3CC2CC2)[C@H]1O5` [β-FNA, β-funaltrexamine], in the series on mice [3] (p < 0.05), the “effect of antagonist pretreatment on Dezocine-produced antinociception” value is “significantly decreased”.
As for `CN1CC[C@]23c4c5ccc(O)c4O[C@H]2[C@@H](O)C=C[C@H]3[C@H]1C5` [Morphine], the “Antinociception ED50 Hot plate test” value in the series with mice [11] is reported as 6.9 (5.6–8.5)^a mg/kg. In the series with mice [12], the “Antinociception ED50 Formalin test Phase I” value is 5.1 (4.3–5.9)^b mg/kg and the “Antinociception ED50 Formalin test Phase II” value is given as 3.1 (2.8–3.3)^b mg/kg. Besides, the “Antinociception ED50 Abdominal constriction test” value in the series on mice [13] is on record as 0.8 (0.5–1.2)^a mg/kg.
For the compound `C[C@@H](NC(=O)[C@@H](N)Cc1ccc(O)cc1)C(=O)NCC(=O)N(C)[C@@H](Cc1ccccc1)C(=O)NCCO` [DAMGO, [D-Ala2,N-Me-Phe4,Gly5-ol]-enkephalin], the Emax at rat μ-opioid receptor [4] (0.1 nM [35S]GTPγS, percentage of stimulated binding over basal, read-out: Agonist activity MOR Emax) was determined as 241 ± 33.8%. In addition, on rat μ-opioid receptor [4], the “functional profile at μ opioid receptor” value is recorded as “full agonist efficacy”.
